Experimental data as given in BindingDB's records for doi:10.1021/acsmedchemlett.0c00203 (University of Texas Md Anderson Cancer Center, 2020).

Legend:
[1] = Inhibition of ENO1 in wild-type human LN319 cells incubated for 5 days by crystal violet staining based spectrophotometry
[2] = Inhibition of ENO1 in overexpressed human D423 cells incubated for 5 days by crystal violet staining based spectrophotometry
[3] = Inhibition of ENO1 in wild-type human LN319 cells incubated for 5 days in presence of 1 % oxygen by crystal violet staining based spectrophotometry
[4] = Inhibition of ENO1 in overexpressed human D423 cells incubated for 5 days in presence of 21 % oxygen by crystal violet staining based spectrophotometry
[5] = Inhibition of ENO1 in wild-type human LN319 cells incubated for 5 days in presence of 21 % oxygen by crystal violet staining based spectrophotometry
[6] = Inhibition of ENO1 in overexpressed human D423 cells incubated for 5 days in presence of 1 % oxygen by crystal violet staining based spectrophotometry

Row | Structure (SMILES) | IC50 [1] [nM] | IC50 [2] [nM] | IC50 [3] [nM] | IC50 [4] [nM] | IC50 [5] [nM] | IC50 [6] [nM]
1 | O=C1C(P(=O)(O)O)CCCN1O (configuration not stated) | > 100000 | > 100000 | – | – | – | –
2 | CC(C)(C)C(=O)OCOP(=O)(OCOC(=O)C(C)(C)C)C1CCCN(O)C1=O (configuration not stated) | 2150 | 604 | 1810 | 720 | 2410 | 2810
3 | CC(C)(C)C(=O)OCOP(=O)(NCc1ccccc1)C1CCCN(O)C1=O (configuration not stated) | 4020 | 3940 | – | – | – | –
4 | CC(=O)ON1CCCC(P(=O)(NCc2ccccc2)OCc2ccc([N+](=O)[O-])o2)C1=O (configuration not stated) | – | – | – | 25900 | 21100 | 5760
5 | Cn1c(COP(=O)(NCCBr)NCCBr)cnc1[N+](=O)[O-] [Evofosfamide] | – | – | 897 | 2550 | 4840 | 301
